The results in this text go back to PubChem BioAssay AID256 (DTP/NCI, 2004).

Several values for one entry are separate records, joined by “and”; a condition that tells them apart may be missing. Equal entries are not always repeated. Inconclusive results and toxic doses are left out.

This assay concerns CD2F1 mice, L1210 leukemia ip, survival T/C. Nature of the assay: NCI In Vivo Anticancer Drug Screen. Data for tumor model L1210 Leukemia (intraperitoneal) in CD2F1 (CDF1) mice. Particulars: higher = longer survival. In outline: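 Compound-dosed mice with transplantable tumor versus matched vehicle controls; endpoint ratio T/C reported.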
The mark [1] stands for this setting: endpoint: mean survival time, dose: 0.5 mg/kg/injection, schedule: Q01DX009 (ip), vehicle: saline.
[2] abbreviates: endpoint: mean survival time, dose: 1.0 mg/kg/injection, schedule: Q01DX009 (ip), vehicle: saline.
The mark [3] stands for this setting: endpoint: mean survival time, dose: 2.0 mg/kg/injection, schedule: Q01DX009 (ip), vehicle: saline.

Regarding `COc1cc2cc(c1Cl)N(C)C(=O)C[C@H](OC(=O)[C@H](C)N(C)C(C)=O)[C@]1(C)O[C@H]1[C@H](C)[C@@H]1C[C@@](O)(NC(=O)O1)[C@H](OC)C=C/C=C(\C)C2`, the T/C was 104 % of control under setting [1]; 109 % of control under setting [2]; 107 % of control under setting [3]; 91 % of control (endpoint: mean survival time, dose: 32.0 mg/kg/injection, schedule: Q01DX009 (ip), vehicle: saline); 111 % of control (endpoint: mean survival time, dose: 8.0 micrograms/kg/injection, schedule: Q01DX009 (ip), vehicle: saline + alcohol); 109 % of control (endpoint: mean survival time, dose: 12.0 micrograms/kg/injection, schedule: Q01DX009 (ip), vehicle: saline + alcohol). The T/C runs as follows: (endpoint: mean survival time, dose: 16.0 micrograms/kg/injection, schedule: Q01DX009 (ip), vehicle: saline + alcohol) 112 % of control; (endpoint: mean survival time, dose: 32.0 micrograms/kg/injection, schedule: Q01DX009 (ip), vehicle: saline + alcohol) 122 % of control; (endpoint: mean survival time, dose: 200.0 micrograms/kg/injection, schedule: Q01DX009 (ip), vehicle: saline + alcohol) 120 % of control; (endpoint: median survival time, dose: 4.0 micrograms/kg/injection, schedule: Q01DX009 (ip), vehicle: clinical formulation) 117 % of control; (endpoint: median survival time, dose: 8.0 micrograms/kg/injection, schedule: Q01DX009 (ip), vehicle: clinical formulation) 117 % of control; (endpoint: median survival time, dose: 16.0 micrograms/kg/injection, schedule: Q04DX003 (ip), vehicle: clinical formulation) 112 % of control. In addition, the T/C (endpoint: median survival time, dose: 32.0 micrograms/kg/injection, schedule: Q04DX003 (ip), vehicle: clinical formulation) is 117 % of control; the T/C (endpoint: median survival time, dose: 64.0 micrograms/kg/injection, schedule: Q01DX001 (ip), vehicle: clinical formulation) was 110 % of control; the T/C (endpoint: median survival time, dose: 512.0 micrograms/kg/injection, schedule: Q04DX003 (ip), vehicle: clinical formulation) is 96 % of control.

As to `N[C@H](C(=O)O)[C@@H]1CC(Cl)=NO1`, the T/C reads like this: under setting [1], 113 % of control; (endpoint: mean survival time, dose: 0.78 mg/kg/injection, schedule: Q01DX009 (ip), vehicle: saline) 115 % of control; under setting [2], 122 % of control; under setting [3], 124 % of control; (endpoint: mean survival time, dose: 3.0 mg/kg/injection, schedule: Q01DX009 (ip), vehicle: saline) 167 % of control; (endpoint: mean survival time, dose: 3.12 mg/kg/injection, schedule: Q01DX009 (ip), vehicle: saline) 153 % of control. The T/C runs as follows: (endpoint: mean survival time, dose: 6.0 mg/kg/injection, schedule: Q01DX009 (ip), vehicle: saline) 165 % of control; (endpoint: mean survival time, dose: 6.25 mg/kg/injection, schedule: Q01DX009 (ip), vehicle: saline) 151 % of control and 156 % of control; (endpoint: mean survival time, dose: 8.0 mg/kg/injection, schedule: Q01DX009 (ip), vehicle: saline) 157 % of control; (endpoint: mean survival time, dose: 12.0 mg/kg/injection, schedule: Q01DX009 (ip), vehicle: saline) 104 % of control; (endpoint: mean survival time, dose: 12.5 mg/kg/injection, schedule: Q01DX009 (ip), vehicle: saline) 118 % of control and 122 % of control; (endpoint: mean survival time, dose: 16.0 mg/kg/injection, schedule: Q01DX009 (ip), vehicle: saline) 155 % of control. Besides, the T/C runs as follows: (endpoint: mean survival time, dose: 25.0 mg/kg/injection, schedule: Q01DX009 (ip), vehicle: saline) 92 % of control; (endpoint: mean survival time, dose: 100.0 mg/kg/injection, schedule: Q04DX003 (ip), vehicle: water) 153 % of control; (endpoint: median survival time, dose: 0.5 mg/kg/injection, schedule: Q01DX009 (ip), vehicle: saline) 122 % of control; (endpoint: median survival time, dose: 1.0 mg/kg/injection, schedule: Q01DX009 (ip), vehicle: saline) 163 % of control; (endpoint: median survival time, dose: 2.0 mg/kg/injection, schedule: Q01DX009 (ip), vehicle: saline) 180 % of control; (endpoint: median survival time, dose: 3.0 mg/kg/injection, schedule: Q01DX009 (ip), vehicle: saline) 152 % of control. The T/C runs as follows: (endpoint: median survival time, dose: 4.0 mg/kg/injection, schedule: Q01DX009 (ip), vehicle: saline) 150 % of control; (endpoint: median survival time, dose: 6.0 mg/kg/injection, schedule: Q01DX009 (ip), vehicle: saline) 114 % of control and 109 % of control; (endpoint: median survival time, dose: 16.0 mg/kg/injection, schedule: Q01DX009 (ip), vehicle: saline) 123 % of control; (endpoint: median survival time, dose: 24.0 mg/kg/injection, schedule: Q01DX009 (ip), vehicle: saline) 72 % of control.

As to `Cc1cc2c(=O)c(C)c[nH]c2cc1Cl`, the T/C is, setting by setting: (endpoint: mean survival time, dose: 50.0 mg/kg/injection, schedule: Q01DX009 (ip), vehicle: Klucel (hydroxypropylcellulose) (HPC)) 89 % of control; (endpoint: mean survival time, dose: 100.0 mg/kg/injection, schedule: Q01DX009 (ip), vehicle: Klucel (hydroxypropylcellulose) (HPC)) 86 % of control.

For `CS(C)=C1C(=O)NC(=S)NC1=O`, the T/C is 108 % of control (endpoint: median survival time, dose: 20.75 mg/kg/injection, schedule: Q01DX009 (ip), vehicle: saline with Tween-80); 102 % of control (endpoint: median survival time, dose: 41.5 mg/kg/injection, schedule: Q01DX009 (ip), vehicle: saline with Tween-80); 111 % of control (endpoint: median survival time, dose: 83.0 mg/kg/injection, schedule: Q01DX009 (ip), vehicle: saline with Tween-80); 107 % of control (endpoint: median survival time, dose: 166.0 mg/kg/injection, schedule: Q01DX009 (ip), vehicle: saline with Tween-80).

Take `N#CSCN1C(=O)C2CC=CCC2C1=O` (configuration not stated): the T/C was 103 % of control (endpoint: mean survival time, dose: 6.25 mg/kg/injection, schedule: Q04DX003 (ip), vehicle: saline with Tween-80) and 101 % of control (endpoint: mean survival time, dose: 12.5 mg/kg/injection, schedule: Q04DX003 (ip), vehicle: saline with Tween-80).

Turning to `OCC1OC(n2cnc3c(Cl)nccc32)C(O)C1O` (configuration not stated), the T/C was 100 % of control (endpoint: median survival time, dose: 9.63 mg/kg/injection, schedule: Q01DX005 (ip), vehicle: saline); 104 % of control (endpoint: median survival time, dose: 19.25 mg/kg/injection, schedule: Q01DX005 (ip), vehicle: saline); 94 % of control (endpoint: median survival time, dose: 38.5 mg/kg/injection, schedule: Q01DX005 (ip), vehicle: saline); 108 % of control (endpoint: median survival time, dose: 77.0 mg/kg/injection, schedule: Q01DX005 (ip), vehicle: saline); 101 % of control (endpoint: median survival time, dose: 154.0 mg/kg/injection, schedule: Q01DX005 (ip), vehicle: saline).

`NC(C(=O)O)c1ccc(CBr)cc1` (configuration not stated): the T/C is 108 % of control (endpoint: median survival time, dose: 3.12 mg/kg/injection, schedule: Q01DX009 (ip), vehicle: saline with Tween-80); 116 % of control and 100 % of control and 112 % of control (endpoint: median survival time, dose: 6.25 mg/kg/injection, schedule: Q01DX009 (ip), vehicle: saline with Tween-80); 113 % of control and 121 % of control and 105 % of control (endpoint: median survival time, dose: 12.5 mg/kg/injection, schedule: Q01DX009 (ip), vehicle: saline with Tween-80); 116 % of control and 103 % of control (endpoint: median survival time, dose: 25.0 mg/kg/injection, schedule: Q01DX009 (ip), vehicle: saline with Tween-80); 121 % of control and 108 % of control (endpoint: median survival time, dose: 50.0 mg/kg/injection, schedule: Q01DX009 (ip), vehicle: saline with Tween-80).

As to `CCOC(=O)CC/C(C)=N\N(C)C`, the T/C is, setting by setting: (endpoint: mean survival time, dose: 100.0 mg/kg/injection, schedule: Q01DX009 (ip), vehicle: saline with Tween-80) 103 % of control; (endpoint: mean survival time, dose: 200.0 mg/kg/injection, schedule: Q01DX009 (ip), vehicle: saline with Tween-80) 97 % of control; (endpoint: mean survival time, dose: 400.0 mg/kg/injection, schedule: Q01DX009 (ip), vehicle: saline with Tween-80) 96 % of control.

Consider `Nc1ncnc2c1c1c(SCc3ccc([N+](=O)[O-])cc3)ncnc1n2C1OC(CO)C(O)C1O` (configuration not stated), for which the T/C reads like this: (endpoint: mean survival time, dose: 6.25 mg/kg/injection, schedule: Q01DX005 (ip), vehicle: other) 104 % of control; (endpoint: mean survival time, dose: 12.5 mg/kg/injection, schedule: Q01DX005 (ip), vehicle: other) 104 % of control; (endpoint: mean survival time, dose: 25.0 mg/kg/injection, schedule: Q01DX005 (ip), vehicle: other) 104 % of control; (endpoint: mean survival time, dose: 50.0 mg/kg/injection, schedule: Q01DX005 (ip), vehicle: other) 113 % of control; (endpoint: mean survival time, dose: 100.0 mg/kg/injection, schedule: Q01DX005 (ip), vehicle: other) 103 % of control; (endpoint: mean survival time, dose: 200.0 mg/kg/injection, schedule: Q01DX005 (ip), vehicle: other) 98 % of control.

With `O=C1CC(=O)NC(=S)N1`, the T/C by setting is: (endpoint: mean survival time, dose: 100.0 mg/kg/injection, schedule: Q01DX009 (ip), vehicle: saline) 95 % of control; (endpoint: mean survival time, dose: 200.0 mg/kg/injection, schedule: Q01DX009 (ip), vehicle: saline) 93 % of control.

On to `COC(=O)C(C(=O)c1ccccc1)c1ccccc1` (configuration not stated), for which the T/C by setting is: (endpoint: mean survival time, dose: 100.0 mg/kg/injection, schedule: Q01DX001 (ip), vehicle: saline with Tween-80) 94 % of control; (endpoint: mean survival time, dose: 200.0 mg/kg/injection, schedule: Q01DX001 (ip), vehicle: saline with Tween-80) 97 % of control; (endpoint: mean survival time, dose: 400.0 mg/kg/injection, schedule: Q01DX001 (ip), vehicle: saline with Tween-80) 90 % of control.

Consider `CC1(C)C2CCC1(C(=O)O)C(=O)C2` (configuration not stated), for which the T/C (endpoint: mean survival time, dose: 100.0 mg/kg/injection, schedule: Q04DX003 (ip), vehicle: saline with Tween-80) is 92 % of control; the T/C (endpoint: mean survival time, dose: 200.0 mg/kg/injection, schedule: Q04DX003 (ip), vehicle: saline with Tween-80) was 92 % of control; the T/C (endpoint: mean survival time, dose: 400.0 mg/kg/injection, schedule: Q04DX003 (ip), vehicle: saline with Tween-80) is 87 % of control.
